PMC8908738 (2022)
Each block holds one compound with its values, some of them ahead of it.

Key:
[1] = test system: 5'ATP aptamer-bridge (DNA, aptamer) CTAGCGAGCGAACTTTACCTGGGGGAGTATTGCGGAGGAAGGT; assay: CD of origami-AuNR probe, single concentration; settings: 5 mM Mg2+, PBS, room temperature, overnight, up to 1 mM
[2] = test system: 5'ATP aptamer-bridge (DNA, aptamer) CTAGCGAGCGAACTTTACCTGGGGGAGTATTGCGGAGGAAGGT; assay: CD of origami-AuNR probe, competitive hybridization, ATP concentration varied; settings: 5 mM Mg2+, PBS, room temperature, overnight, ATP 1 μM to 1 mM, displaced 5'ATPCS9 (n = 9)
[3] = test system: 5'ATP aptamer-bridge (DNA, aptamer) CTAGCGAGCGAACTTTACCTGGGGGAGTATTGCGGAGGAAGGT; assay: CD of origami-AuNR probe, competitive hybridization, complementary strand length varied; settings: 5 mM Mg2+, PBS, room temperature, overnight, 1 mM ATP, displaced 5'ATPCS9-12, R^2 0.96
[4] = test system: 5'glucose aptamer-bridge (DNA, aptamer) CTAGCGAGCGAACTTTACGACCGTGTGTGTTGCTCTGTAACAGTGTCCATTGTCGT; assay: CD of origami-AuNR probe, single concentration; settings: 5 mM Mg2+, PBS, room temperature, overnight, up to 100 mM fructose, displaced 5' strand n = 10
[5] = test system: 5'glucose aptamer-bridge (DNA, aptamer) CTAGCGAGCGAACTTTACGACCGTGTGTGTTGCTCTGTAACAGTGTCCATTGTCGT; assay: CD of origami-AuNR probe, competitive hybridization, complementary strand length varied; settings: 5 mM Mg2+, PBS, room temperature, overnight, 100 mM glucose, displaced 5'gluCS8-12, R^2 0.99

SMILES: Nc1nc2c(ncn2[C@@H]2O[C@H](COP(=O)(O)OP(=O)(O)OP(=O)(O)O)[C@@H](O)[C@H]2O)c(=O)[nH]1
binding ([1]; displaced 5'ATPCS9, CD change 3.6% (ATP 53.7%)): no

SMILES: Nc1ncnc2c1ncn2[C@@H]1O[C@H](COP(=O)(O)OP(=O)(O)OP(=O)(O)O)[C@@H](O)[C@H]1O
KD2^ATP [2]: 4.54 ± 0.580 µM
KD2^ATP [3]: 5.71 ± 0.865 µM

Now from value to compound:

binding ([1]; displaced 5'ATPCS9, CD change 2.1% (ATP 53.7%)): no
SMILES: Nc1ccn([C@@H]2O[C@H](COP(=O)(O)OP(=O)(O)OP(=O)(O)O)[C@@H](O)[C@H]2O)c(=O)n1

binding [4]: no
SMILES: OCC1(O)OC[C@@H](O)[C@@H](O)[C@@H]1O (stereo partly drawn)

KD2^glu [5]: 5.57 ± 0.436 mM
SMILES: OC[C@H]1OC(O)[C@H](O)[C@@H](O)[C@@H]1O (stereo partly drawn)
